Columns and labels:
SARS-CoV-2 nsp14 [1] = biological target: T1, SARS-CoV-2 nsp14 (Severe acute respiratory syndrome coronavirus 2, UniProt P0DTD1); assay: Nsp14 RapidFire MS high-throughput screening assay; type: biochemical
nsp14 N7-MTase = settings: read-out: IC50 nsp14 N7-MTase activity; cited from earlier work
SAR-CoV = settings: cited from earlier work
[2] = biological target: human homolog RNA RNMT (RNMT:RAM) (Homo sapiens, UniProt O43148); assay: RNMT assay under similar conditions to the nsp14 RapidFire assay; type: biochemical
SARS-CoV-2 nsp14 [3] = biological target: T1, SARS-CoV-2 nsp14; assay: biochemical; type: biochemical
SARS-CoV-2 = settings: read-out: EC50 blocking SARS-CoV-2 in vitro infections; cited from earlier work
[4] = humans; with minimal gastrointestinal side effects; cited from earlier work
[5] = hydrolysis to the active metabolite tizoxanide; cited from earlier work

Chain of human homolog RNA RNMT (RNMT:RAM) (O43148 whole entry): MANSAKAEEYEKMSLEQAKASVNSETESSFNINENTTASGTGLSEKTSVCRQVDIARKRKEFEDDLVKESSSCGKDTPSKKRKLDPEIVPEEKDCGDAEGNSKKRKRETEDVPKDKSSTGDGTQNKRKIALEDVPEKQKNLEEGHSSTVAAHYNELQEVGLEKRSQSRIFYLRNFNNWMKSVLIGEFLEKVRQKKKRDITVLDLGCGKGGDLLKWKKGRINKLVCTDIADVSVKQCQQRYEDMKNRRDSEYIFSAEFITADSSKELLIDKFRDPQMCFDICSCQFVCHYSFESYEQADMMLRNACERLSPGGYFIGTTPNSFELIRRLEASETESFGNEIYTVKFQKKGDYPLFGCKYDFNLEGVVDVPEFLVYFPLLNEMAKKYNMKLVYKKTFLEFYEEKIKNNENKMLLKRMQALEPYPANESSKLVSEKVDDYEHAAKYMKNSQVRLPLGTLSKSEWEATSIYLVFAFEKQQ
Chain of human homolog RNA RNMT (RNMT:RAM) (Q9BTL3 1-90 partner limits assumed): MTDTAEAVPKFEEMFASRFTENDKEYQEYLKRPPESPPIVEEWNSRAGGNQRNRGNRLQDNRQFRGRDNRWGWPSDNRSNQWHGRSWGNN

O=C1C=CC(=O)N1c1cccc(F)c1 [N-(3-fluorophenyl)maleimide]
percentage effect on nsp14 activity (SARS-CoV-2 nsp14 [1]; single concentration of 10 µM): greater than 50%

O=c1c(O)c(-c2ccc(O)cc2)oc2cc(O)cc(O)c12 [kaempferol]
IC50 (SARS-CoV-2 nsp14 [1]): 28 µM

O=C(O)C1=CC(=C(c2ccc(O)c(C(=O)O)c2)c2ccc(O)c(C(=O)O)c2)C=CC1=O [aurintricarboxylic acid]
IC50 (nsp14 N7-MTase): 6.4 µM
effect on SAR-CoV replication in infected cells (SAR-CoV): limit SAR-CoV replication in infected cells

CC(=O)Oc1ccccc1C(=O)Nc1ncc([N+](=O)[O-])s1 [nitazoxanide]
Emax at 100 µM (SARS-CoV-2 nsp14 [1]; read-out: maximal effect, dose response, top concentration 100 µM): 89.7%
IC50 [2]: > 100 µM
IC50 (SARS-CoV-2 nsp14 [3]): 132 µM
inhibition of N7-guanosine cap methylation (SARS-CoV-2 nsp14 [3]): Forty-nine
shift in activity between cap MTase assay and primary biochemical assay (SARS-CoV-2 nsp14 [3]; orthogonal versus RapidFire assay): 10 fold
EC50 (SARS-CoV-2): 2.12 µM
tolerated single dose [4]: up to 4 g
metabolic fate following oral administration [5]: rapidly hydrolyzed

Nc1ncnc2c1ncn2[C@@H]1O[C@H](CSCC[C@H](N)C(=O)O)[C@@H](O)[C@H]1O [S-adenosyl-L-homocysteine]
IC50 (nsp14 N7-MTase): 16 µM

O=C(Nc1ncc([N+](=O)[O-])s1)c1ccccc1O [tizoxanide]
IC50 (SARS-CoV-2 nsp14 [1]): 54.8 µM
